Values of other authors as cited in patent US20120177729A1, “SUSTAINED RELEASE COMPOSITION OF RANOLAZINE” (Lupin Limited, priority 2009, published 2012).

Assays:
[1] = in vivo

- Solubility (low pH that occurs in the stomach): relatively high
- Solubility in aqueous solutions (pH above about 6.5): relatively insoluble
- Plasma half-life [1]: relatively short
Compound: COc1ccccc1OCC(O)CN1CCN(CC(=O)Nc2c(C)cccc2C)CC1 (racemic) [Ranolazine, (±)-N-(2,6-dimethylphenyl)-4-[2-hydroxy-3-(2-methoxyphenoxy)propyl]-1-piperazine-acetamide]
